Assays:
Experiment in all cases: normalised viability (% of control), CellTiter-Blue; higher = more viable cells (about 100 = DMSO control)
BT-549 [1] = conditions: incubation time: 72 h
In short: (§1)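 The reported quantity is normalised viability at a single listed concentration of the series. Compound in 5 µl medium was pre-dispensed into 384-well plates and 20 µl of breast cancer cell suspension was added for 72 h. A 2 h, 37 °C CellTiter-Blue step (2.5 µl) preceded fluorescence reading at 560/590 nm, and plates were normalised to vehicle (100) and a positive kill control (0).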

MDA-MB-453 [2] = conditions: incubation time: 72 h
In short: as §1

CAL-85-1 [3] = conditions: incubation time: 72 h
In short: as §1

MDA-MB-468 [4] = conditions: incubation time: 72 h
In short: as §1

CAL-120 [5] = conditions: incubation time: 72 h
In short: as §1

HCC1599 [6] = conditions: incubation time: 72 h
In short: as §1

MDA-MB-231 [7] = conditions: incubation time: 72 h
In short: as §1

HCC1143 [8] = conditions: incubation time: 72 h
In short: as §1

Hs578T [9] = conditions: incubation time: 72 h
In short: as §1

HCC1937 [10] = conditions: incubation time: 72 h
In short: as §1

DU-4475 [11] = conditions: incubation time: 72 h
In short: as §1

BT-474 [12] = conditions: incubation time: 72 h
In short: as §1

MFM-223 [13] = conditions: incubation time: 72 h
In short: as §1

CAL-51 [14] = conditions: incubation time: 72 h
In short: as §1

HDQ-P1 [15] = conditions: incubation time: 72 h
In short: as §1

CAL-148 [16] = conditions: incubation time: 72 h
In short: as §1

MDA-MB-436 [17] = conditions: incubation time: 72 h
In short: as §1

SK-BR-3 [18] = conditions: incubation time: 72 h
In short: as §1

BT-549 [19] = conditions: 100 nM; incubation time: 72 h
Protocol: (§2)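 DSRT, CellTiter-Blue viability, 72 h incubation. Signal is normalised to DMSO and benzethonium chloride controls. Value is the normalised response at dose 3.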

MDA-MB-453 [20] = conditions: 10 nM; incubation time: 72 h
Protocol: as §2

CAL-85-1 [21] = conditions: 10 nM; incubation time: 72 h
Protocol: as §2

MDA-MB-468 [22] = conditions: 100 nM; incubation time: 72 h
Protocol: as §2

CAL-120 [23] = conditions: 100 nM; incubation time: 72 h
Protocol: as §2

HCC1599 [24] = conditions: 100 nM; incubation time: 72 h
Protocol: as §2

MDA-MB-231 [25] = conditions: 100 nM; incubation time: 72 h
Protocol: as §2

HCC1143 [26] = conditions: 100 nM; incubation time: 72 h
Protocol: as §2

Hs578T [27] = conditions: 100 nM; incubation time: 72 h
Protocol: as §2

HCC1937 [28] = conditions: 100 nM; incubation time: 72 h
Protocol: as §2

DU-4475 [29] = conditions: 10 nM; incubation time: 72 h
Protocol: as §2

BT-474 [30] = conditions: 100 nM; incubation time: 72 h
Protocol: as §2

MFM-223 [31] = conditions: 100 nM; incubation time: 72 h
Protocol: as §2

CAL-51 [32] = conditions: 10 nM; incubation time: 72 h
Protocol: as §2

HDQ-P1 [33] = conditions: 10 nM; incubation time: 72 h
Protocol: as §2

CAL-148 [34] = conditions: 10 nM; incubation time: 72 h
Protocol: as §2

MDA-MB-436 [35] = conditions: 100 nM; incubation time: 72 h
Protocol: as §2

SK-BR-3 [36] = conditions: 100 nM; incubation time: 72 h
Protocol: as §2

O=P(O)(O)C(O)(Cn1ccnc1)P(=O)(O)O [Zoledronic acid]
normalised viability [%]
Conditions | 3 nM | 10 nM | 30 nM | 100 nM | 1000 nM | 10000 nM
BT-474 [12] | – | 103 | – | – | 103 | 117
BT-549 [1] | – | 92.5 | – | – | 108 | 91.3
CAL-51 [14] | 108 | – | 116 | 102 | – | –
CAL-85-1 [3] | 91.6 | – | 83.2 | 96.5 | – | –
CAL-120 [5] | – | 81.2 | – | – | 98 | 91.8
CAL-148 [16] | 92.2 | – | 84.4 | 92.6 | – | –
DU-4475 [11] | 107 | – | 95.8 | 99.8 | – | –
HCC1143 [8] | – | 82 | – | – | 85.2 | 85.2
HCC1599 [6] | – | 94.1 | – | – | 75.3 | 95.4
HCC1937 [10] | – | 96.4 | – | – | 95.5 | 99.7
HDQ-P1 [15] | 94.6 | – | 91.9 | 84.1 | – | –
Hs578T [9] | – | 95.1 | – | – | 113 | 98.2
MDA-MB-231 [7] | – | 92.2 | – | – | 89.3 | 95.9
MDA-MB-436 [17] | – | 95 | – | – | 89.2 | 94.3
MDA-MB-453 [2] | 101 | – | 96 | 101 | – | –
MDA-MB-468 [4] | – | 107 | – | – | 102 | 111
MFM-223 [13] | – | 99.3 | – | – | 86.5 | 97.2
SK-BR-3 [18] | – | 106 | – | – | 93.9 | 96.5

Conditions | normalised viability [%]
BT-474 [30] | 102
BT-549 [19] | 101
CAL-51 [32] | 116
CAL-85-1 [21] | 90.2
CAL-120 [23] | 94.2
CAL-148 [34] | 86.5
DU-4475 [29] | 97.7
HCC1143 [26] | 89.1
HCC1599 [24] | 109
HCC1937 [28] | 102
HDQ-P1 [33] | 91.5
Hs578T [27] | 85.3
MDA-MB-231 [25] | 93.9
MDA-MB-436 [35] | 113
MDA-MB-453 [20] | 96.2
MDA-MB-468 [22] | 117
MFM-223 [31] | 91.7
SK-BR-3 [36] | 91

From the supplement of paper PMC4862054
